Like-named read-outs stand apart in the source and are kept apart here.
What was measured:
[1] = test system: rats; experiment: Anti-depressant activity: antagonism of symptoms induced by 2-ethyl-2-hydroxy-3-isobutyl-9,10-dimethoxy-1,3,4,6,7,11b-hexahydro-2H-benzo (a) quinolizine hydrochloride (motility, sensitivity to stimulus, seeking behavior, suppression of ptosis); format: in vivo; conditions: 3 doses of 50 mg/kg p.o., benzoquinolizine 20 mg/kg s.c. 6 h after last dose, amitriptyline = 100 percent
Procedure: The compounds of formula I above and their pharmaceutically acceptable salts are extremely effective and active as anti-depressant agents. Their useful anti-depressant activity is shown in warm-blooded animals utilizing standard test procedures. […] Six hours after the last administration the animals received 20 mg/kg of 2-ethyl-2-hydroxy-3-isobutyl-9,10-dimethoxy-1,3,4,6,7,11b-hexahydro-2H-benzo (a) quinolizine hydrochloride injected subcutaneously. The same dosage was administered to a group of 5-non-pretreated rats. The evaluation includes central and peripheral symptoms such as are characteristic for anti-depressants (See Annals of the New York Academy of Science, Vol. 96, page 279, 1962). Especially observed were the motility (climbing), sensitivity to stimulus, seeking behavior as well as the suppression of ptosis. These changes were expressed in numbers according to an evaluation scheme.
The percentage numbers stated relate to the value obtained with amitriptyline (amitriptyline = 100 percent).

[2] = Acute toxicity (LD50), 24 hour values; conditions: mouse, in vivo, mice, 24 hour value
Procedure: The low toxicity of the compounds of formula I is also illustrated by the acute toxicity (LD50) of the compounds set out in Table I. The figures set forth in Table I as to acute toxicity refer to toxicity tests performed in mice and are the 24 hour values.

CN1Cc2cc(O)ccc2C(c2ccc(Cl)cc2)C1 (stereo not drawn) [4-(4-chlorophenyl)-1,2,3,4-tetrahydro-2-methyl-7-isoquinolinol]
Activity in % of the activity of amitriptyline [1]: about 114%
LD50 at 24 h ([2]; iv, i.v., read-out: LD50 i.v.): 30 to 60 mg/kg
LD50 at 24 h ([2]; po, p.o., read-out: LD50 p.o.): 1000 to 2000 mg/kg
LD50 at 24 h ([2]; sc, s.c., read-out: LD50 s.c.): 500 to 1000 mg/kg

COc1ccc2c(c1)CN(C)CC2c1ccc(Cl)c(Cl)c1 (stereo not drawn) [4-(3,4-dichlorophenyl)-1,2,3,4-tetrahydro-7-methoxy-2-methylisoquinoline]
Activity in % of the activity of amitriptyline [1]: about 128%
LD50 at 24 h ([2]; iv, i.v., read-out: LD50 i.v.): 125 to 250 mg/kg
LD50 at 24 h ([2]; po, p.o., read-out: LD50 p.o.): 1000 to 2000 mg/kg
LD50 at 24 h ([2]; sc, s.c., read-out: LD50 s.c.): 500 to 1000 mg/kg

CN1Cc2cc(O)ccc2C(c2ccc(Cl)c(Cl)c2)C1 (stereo not drawn) [4-(3,4-dichlorophenyl)-1,2,3,4-tetrahydro-2-methyl-7-isoquinolinol]
Activity in % of the activity of amitriptyline [1]: about 158%
LD50 at 24 h ([2]; iv, i.v., read-out: LD50 i.v.): 30 to 60 mg/kg
LD50 at 24 h ([2]; po, p.o., read-out: LD50 p.o.): 500 to 1000 mg/kg
LD50 at 24 h ([2]; sc, s.c., read-out: LD50 s.c.): 250 to 500 mg/kg

Source: patent US3947456A, “Substituted 4-phenyl isoquinolines” (Hoffman-La Roche Inc., priority 1970, dated 1976)
